Experimental data taken from publication PMC8623273, “Novel N7-Arylmethyl Substituted Dinucleotide mRNA 5′ cap Analogs: Synthesis and Evaluation as Modulators of Translation” (Pharmaceutics, 2021).

Tested on: A549 cells
Experiment: translational efficiency of mRNAs capped with the analogs in A549 cells (Gaussia luciferase)
Format: cell-based
Conditions: mRNA capped with the analog; Gaussia luciferase activity in A549 cells 72 h post-transfection; normalized to m^7GpppG RNA
Experimental: Finally, we tested the properties of arylmethyl cap analogs as reagents for co-transcriptional mRNA capping. […] Here, we sought to evaluate the translational properties of mRNAs capped with N7-arylmethyl analogs in cultured cells. To that end, the translation properties of transcripts capped with selected analogs were assessed in A549 cells. In vitro transcribed mRNAs encoding Gaussia luciferase, capped with compounds 1a–1k, 1m–1n, and 1p–1r or with reference analogues m^7GpppG and ARCA (m^7GmpppG), were purified via RP HPLC, transfected into A549 cells, and the protein activity (luminescence) was measured using a reporter assay at 72 h post-transfection. The total amount of protein produced over 72 h from each capped RNA was normalized to m^7GpppG RNA (Figure 6 and Figure S4). […] Namely, replacing the N7-methyl group with a benzyl moiety (1a) increased protein production over fivefold in A549 cells compared to m^7GpppG-capped mRNA (Figure 6).
The influence of N7-arylmethylated dinucleotide 5′ cap analogues on the translational properties of HPLC-purified IVT mRNA is shown in Figure S4, Measurements are total protein produced over 72 h by A549 cells transfected with capped mRNAs. Each plot in Figure S4 represents a single experiment consisting of three independent transfections of the cells at the same passage. Bars show mean value normalized to […] ± SD. In the main manuscript, all nine data points from three different cell passages were combined to present cumulative protein expression.

Substance: m^7GmpppG [reference compound]
- Rel. Protein Expression: 8.6 ± 1.0
